The results in this text go back to PMC10779143, “Collagen-like Osteoclast-Associated Receptor (OSCAR)-Binding Motifs Show a Co-Stimulatory Effect on Osteoclastogenesis in a Peptide Hydrogel System” (International Journal of Molecular Sciences, 2023).

Data set [1] in a line: CD analysis of secondary structure (collagen triple helix) and refolding. Format: physicochemical. To be noted: CD Buffer pH 7.4.
Description: Secondary structures of OP1_Hyp, OP1_Pro, and OCol1 were analysed by circular dichroism (CD) spectroscopy using a Jasco® J-810 spectropolarimeter (UCI, Irvine, CA, USA) equipped with a Peltier temperature controller. OP1_Hyp and OP1_Pro were resuspended up to a concentration of 0.5 mg/mL in a CD transparent buffer (10 mM K2HPO4, 10 mM KH2PO4, 150 mM KF, pH 7.4, CD Buffer) [15] and kept for 24 h at 4 °C to allow for the formation of the collagen triple helical structure. OCol1 was exchanged to CD Buffer using a PD 10 disposable desalting column (GE17-0851-01, Merck, Feltham, UK). Briefly, the column was equilibrated with five column volumes of CD Buffer before the addition of OCol1 to the storage buffer. After flow-through collection, 0.5 mL fractions were collected into 1.5 mL Eppendorf tubes. The OCol1 elution fractions were quickly analysed by CD, and the one with the highest concentration (0.2 mg/mL) was used. CD spectra were measured between 190 nm and 260 nm at 10 °C using a 1 mm path-length CD-matched quartz cuvette (Starna Scientific, Ilford, UK). Data were collected every 0.2 nm with a 1 nm bandwidth. Spectral baselines were corrected by subtracting the spectrum of CD Buffer (blank) collected under the same conditions. Additionally, the thermal stability of OP1_Hyp, OP1_Pro, and OCol1 was analysed. Thermal transition profiles were recorded between 10 °C and 60 °C (OP1_Hyp and OP1_Pro) or 70 °C (OCol1) at 222 nm with a data pitch of 0.2 °C, a bandwidth of 1 nm, a detector response time of 32 s, and a temperature slope of 1 °C/min. Samples were cooled back to 10 °C after the different transitions had been completed, and final spectra were recorded at that temperature. Ellipticity in millidegrees was converted to mean residue molar ellipticity Θ (degree cm^2 dmol^−1) by normalising for the number of residues on each peptide or protein [23].
The target of data set [2] is T1, recombinant human OSCAR-Fc chimera (Homo sapiens, UniProt Q8IYS5).
T1 construct: extracellular region of human OSCAR (Asp19-Asn229, NP_573399); purchased R&D Systems, Bio-Techne 9955-OS
T1 sequence (Q8IYS5 19-229 isoform Q8IYS5-2): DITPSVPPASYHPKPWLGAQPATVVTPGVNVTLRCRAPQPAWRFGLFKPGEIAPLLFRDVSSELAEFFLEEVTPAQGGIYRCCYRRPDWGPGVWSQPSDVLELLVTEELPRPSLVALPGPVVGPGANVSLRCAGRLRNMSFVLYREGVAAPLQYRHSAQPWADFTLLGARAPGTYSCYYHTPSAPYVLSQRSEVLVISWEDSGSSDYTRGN
Description: Surface plasmon resonance (SPR) analysis of the peptide-OSCAR interaction. It counts as binding. The following applies: 25 °C. How it is done: Surface plasmon resonance (SPR) was used to determine the binding affinity between OP1_Hyp or OP1_Pro and a recombinant human OSCAR-Fc chimera made from the extracellular region of human OSCAR (Asp19-Asn229, NP_573399) and the Fc domain from human IgG1 (Pro100-Lys330, P01857-1). A kinetic analysis was performed with immobilised OSCAR-Fc, OP1_Hyp, and OP1_Pro as analytes. A Langmuir 1:1 model was used to perform the kinetic analysis. This model is based on a simple interaction between ligand and analytes where a 1:1 molar complex is formed at equilibrium, i.e., A + B ⇄ AB. The kinetics of the reaction are determined by the association and dissociation rate constants (ka and kd, respectively), with an overall affinity constant (KD) given by KD = kd/ka.
SPR analyses were carried out on a Biacore™ T200 (Cytiva) using a Series S CM5 sensor chip with an assay running buffer of 10 mM PBS, 150 mM NaCl, 0.05% Tween20, pH 7.4. Reference and active flow cells were activated by injecting 70 μL of a 1:1 mixture of 0.2 M 1-ethyl-3-(3-dimethylaminopropyl)-carbodiimide (EDC) and 0.1 M N-hydroxysuccinimide (NHS) at 10 µL/min. Recombinant human OSCAR-Fc chimera (R&D Systems, Bio-Techne, Minneapolis, MN, USA, 9955-OS) was immobilised onto the active flow cell at 20 µg/mL in 10 mM sodium acetate pH 5.0 at 10 µL/min to 6880 response units (RU). Reference and active flow cells were blocked using 1 M ethanolamine, pH 8, at a flow rate of 10 µL/min. For kinetic and equilibrium binding analysis, OP1_Hyp and OP1_Pro peptides were flowed at 25 °C active and reference flow cells at 30 µL/min in assay running buffer at peptide concentrations of 5000—0 nM (OP1_Hyp) and 40,000—0 nM (OP1_Pro), using a dilution series. Surfaces were regenerated with a 10 s injection of 0.1 M glycine, pH 2.0. Data sets were analysed with the built-in BiaEvaluation software (version 4.1). The models used for analysis were the Langmuir 1:1 binding model and the steady-state analysis model. Data are presented as the mean and standard error of the mean (SEM) of triplicate runs.
(In general: In SPR one partner is held on a chip, and binding of the other changes the refractive index at the surface.)

The subject of the next data set is Raw 264.7 cells. Put plainly: TRAP staining / osteoclast morphology of Raw 264.7 cells on peptide-coated tissue culture plastic. Format: cell-based. How it is done:
(§1) Raw 264.7 cells were cultured and passaged as previously described. Cell adhesion to OP1_Hyp and OP1_Pro was assessed as shown by Barrow et al.. Briefly, 48-well plates were coated with 10 µg/mL of OSCAR-binding peptides overnight at 4 °C. The excess peptide was then removed by washing with PBS before adding 1% BSA to block non-specific binding sites for 1 h at 25 °C. Raw 264.7 cells were then resuspended at a concentration of 2 × 10^5 cells/mL and added to the well. Cells were cultured with different concentrations of human RANKL (hRANKL) (catalogue number: 310-01 from Peprotech, London, UK) (0–100 ng/mL) for up to 5 days to assess the contribution of the OSCAR-binding peptides OP1_Hyp and OP1_Pro to the differentiation of Raw 264.7 cells to mature OCs.
After 5 days of post-culture, Raw 264.7 cells were fixed in 4% PFA for 15 min at room temperature. TRAP was stained following the manufacturer’s protocol and evaluated by light microscopy (ThermoFisher, Swindon, UK). Multinucleated TRAP+ cells containing more than three nuclei were scored as mature OCs.

The test system of data set [3] is TRAP gene expression, Raw 264.7 cells. Description: qRT-PCR TRAP gene expression, Raw 264.7 cells on peptide-coated TCP. Format: cell-based. The protocol: as §1
(§2) Gene expression of OC markers was evaluated as previously described. A StepOne™ Real-Time PCR System (Applied Biosystems, Warrington, UK) was used, with TaqMan probes and a universal PCR Master Mix (Life Technologies, Carlsbad, CA, USA, 4304437) in a total volume of 10 µL. The TaqMan probes for TRAP and OSCAR were Mm00475698_m1 and Mm01338227_g1, respectively. Data were analysed using the 2^−∆Ct method and normalised to the endogenous housekeeping gene GAPDH (Mm99999915_g1). Experiments were performed in triplicate.
(In general: Real-time PCR tracks product formation cycle by cycle.)

Data set [4] concerns OSCAR gene expression, Raw 264.7 cells. Description: qRT-PCR OSCAR gene expression, Raw 264.7 cells on peptide-coated TCP. To be noted: n = 3. It counts as cell-based. The protocol: as §1, §2

As to “Ac-GPOGPOGPOGAPGPAGFAGPOGPOGPO-NH2 [OP1_Pro]”, in data set [1] (CD at 70 °C), the “Triple helical features (positive ellipticity band) at 70 °C” value was “disappeared from the CD spectra”. Further, the “Secondary structure by CD” value in data set [1] (CD spectra 190-260 nm at 10 °C, 0.5 mg/mL peptides, 0.2 mg/mL OCol1) is “a band of positive ellipticity with a maximum at ~220 nm and a deep band of negative ellipticity with a minimum at ~198 nm, previously associated with the typical conformation of the collagen triple helix”. For the same substance, in data set [1] (cooling from 70 °C to 10 °C, approximately 30 min, 210 µM peptides, 12 µM OCol1), the “Refolding of the triple helix after denaturation” value is “partial recovery of the collagen structure”. The “Retention of OSCAR binding on replacing Hyp with Pro” value in data set [2] (Hyp at position 3 replaced with Pro) was “OSCAR binding is not abolished”. The “Association/dissociation behaviour in sensorgrams” value in data set [2] (immobilised human OSCAR-Fc, pH 7.4) was “both association and dissociation phases occurred very quickly”. For the same substance, in the data set with Raw 264.7 cells (5 days on coated TCP, 10 ng/mL hRANKL (suboptimal)), the “Osteoclast features / TRAP staining, 10 ng/mL hRANKL” value is recorded as “still showed signs of osteoclastogenesis”. In addition, in the data set with Raw 264.7 cells (5 days on coated TCP, 100 ng/mL hRANKL, peptide effect masked by high hRANKL), the “Osteoclast features / TRAP staining, 100 ng/mL hRANKL” value was “typical OC features”. Also, the “Differentiation without hRANKL (TRAP staining)” value in the data set with Raw 264.7 cells (5 days on coated TCP, no hRANKL added) is reported as “not able to trigger any differentiation on their own”. Also, the “Overall effect on differentiation of Raw 264.7 cells on coated TCP” value with Raw 264.7 cells (used as substrate on TCP) was “positive effect on differentiation”. Also, the “TRAP expression, 100 ng/mL hRANKL” value in data set [3] (5 days vs day 1, relative to GAPDH, n = 3) is “significantly higher after 5 days”. Also, the “TRAP expression, 10 ng/mL hRANKL” value in data set [3] (5 days, relative to GAPDH, n = 3, lower than with 100 ng/mL hRANKL) was “TRAP expression was lower”. Further, the “TRAP expression, 0-1 ng/mL hRANKL” value in data set [3] (five days, relative to GAPDH, n = 3) is on record as “either expressed at lower amounts or did not change significantly after five days of culture”. For the same substance, in data set [4] (5 days vs day 1, relative to GAPDH), the “OSCAR expression, 100 ng/mL hRANKL” value is listed as “significantly higher compared to day 1”. Besides, the “OSCAR expression, 10 ng/mL hRANKL” value in data set [4] (5 days, relative to GAPDH) is given as “still significantly higher”. The “OSCAR expression, 0-1 ng/mL hRANKL” value in data set [4] (five days, relative to GAPDH) was “either expressed at lower amounts or did not change significantly after five days of culture”.
